For assay [1], the target named is T1, High affinity nerve growth factor receptor (Homo sapiens, UniProt P04629). Kind of assay: Inhibition of GAL4 fused TrkA (unknown origin) expressed in PC12 cells transfected with pFA2-Elk plasmid and pFR-luciferase plasmid measured for 18 hrs by luciferase reporter gene assay. The format is cell-based, Rattus norvegicus, PC-12.
Assay [2] has as its target T1, High affinity nerve growth factor receptor. Nature of the assay: Inhibition of TrkA (unknown origin).
The target is the same in assay [3]. Kind of assay: Inhibition of GST-fused TrkA (unknown origin) expressed in SF9 cells using H2N-RRRAAAEEIYGEINH2 peptide as substrate preincubated with ATP and Mg and measured by microtiter plate reader analysis.

T1 sequence (P04629 whole entry, the tested form may be a part): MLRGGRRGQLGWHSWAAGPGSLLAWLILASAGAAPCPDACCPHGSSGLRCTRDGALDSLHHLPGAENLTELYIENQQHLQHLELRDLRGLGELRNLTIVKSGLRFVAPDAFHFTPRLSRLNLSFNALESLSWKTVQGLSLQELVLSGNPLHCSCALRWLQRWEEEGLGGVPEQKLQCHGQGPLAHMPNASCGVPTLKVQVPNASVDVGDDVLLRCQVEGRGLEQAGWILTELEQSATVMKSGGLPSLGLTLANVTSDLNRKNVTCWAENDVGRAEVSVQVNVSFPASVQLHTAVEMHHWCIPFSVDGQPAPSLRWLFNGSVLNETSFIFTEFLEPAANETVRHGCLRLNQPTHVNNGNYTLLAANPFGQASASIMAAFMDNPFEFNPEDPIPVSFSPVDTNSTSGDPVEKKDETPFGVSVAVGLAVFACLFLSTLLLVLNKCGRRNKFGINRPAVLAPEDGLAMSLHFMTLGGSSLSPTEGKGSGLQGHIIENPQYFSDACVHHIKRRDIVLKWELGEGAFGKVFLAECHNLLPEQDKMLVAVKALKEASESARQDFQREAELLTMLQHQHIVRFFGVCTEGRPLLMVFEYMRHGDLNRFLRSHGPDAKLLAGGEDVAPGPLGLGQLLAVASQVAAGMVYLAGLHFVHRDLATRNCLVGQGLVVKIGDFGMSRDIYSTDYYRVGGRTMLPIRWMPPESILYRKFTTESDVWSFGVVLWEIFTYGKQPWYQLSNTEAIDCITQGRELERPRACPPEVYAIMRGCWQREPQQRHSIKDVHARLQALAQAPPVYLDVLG

In the case of `Cn1cc(/C=C2\C(=O)Nc3ccccc32)c2ccccc21`, the IC50 – broadly, the concentration that inhibits the measured activity by half – in assay [1] was 998 nM; in assay [2], 25.7 nM.

For `NS(=O)(=O)c1ccc2c(c1)/C(=C/c1c[nH]c3ccc(O)cc13)C(=O)N2`, the IC50 is 366 nM in assay [1] and 5.22 nM in assay [2].

In turn, `O=C1Nc2ccccc2/C1=C\c1c(Cl)[nH]c2ccccc12` registered an IC50 in assay [2] of more than 10000 nM.

For the compound `NS(=O)(=O)c1ccc(N/C=C2\C(=O)Nc3ccccc32)cc1`, inhibition in assay [3] was half-maximal at 63 nM (IC50).

With `NS(=O)(=O)c1ccc2c(c1)/C(=C/c1c[nH]c3ccccc13)C(=O)N2`, the half-inhibitory concentration (IC50) in assay [1] came out at 342 nM; in assay [2], 11.1 nM.

The compound `Cc1[nH]c2ccccc2c1/C=C1\C(=O)Nc2ccccc21` returned an IC50 in assay [2] of more than 10000 nM.

(Values after ChEMBL document CHEMBL4765228, “Indole-like Trk receptor antagonists” (Eur J Med Chem, 2016).)
